From patent US20090105301A1, “9A-SUBSTITUTED AZALIDES FOR THE TREATMENT OF MALARIA” (priority 2006, published 2009) come the findings set out here.

Values after ≈ are worked out from the molar mass of the structure shown. Structures can show the parent of a compound that is named as a salt.

Broadly, the IC50 is the concentration at which inhibition is half-maximal.

Common to all, as to format: cell-based, Plasmodium falciparum
Experiment [1] has as its system P. falciparum W2 (CDC/Indochina III, W-2). Kind of experiment: In vitro screening protocol I, [3H]-hypoxanthine incorporation, W2. The conditions noted are these: In vitro screening protocol I, P. falciparum W2; for IC50: Plasmodium falciparum, read-out: IC50 W2. From the text:
(§1) Agents Chemother. 27 (4) (1985) 525-530). The system was limited to the assessment of the intrinsic activity against the erythrocytic asexual life cycle (blood schizontocides). Two Plasmodium falciparum clones from CDC/Indochina III (W-2) and CDC/Sierra Leone I (D-6) (Oduola A M, Weatherly N F, Bowdre J H, Desjardins R E. Plasmodium falciparum: cloning by single-erythrocyte micromanipulation and heterogeneity in vitro. Exp Parasitol. 66 (1) (1988) 86-95) were used for all assays. TM91C235, a multiple drug resistant isolate from Thailand (Antimicrob. Agents Chemother. 46 (8) (2002) 2627 and Antimicrob. Agents Chemother. 43 (3) (1999) 598-602), was used for the prescreening assay. W-2 is resistant to chloroquine, quinine, and pyrimethamine and susceptible to mefloquine. D-6 tends to be more resistant to mefloquine and susceptible to chloroquine, quinine, and pyrimethamine. All documents cited in this paragraph are incorporated by reference in their entirety.
(§2) All parasites were maintained in continuous long term cultures in RPMI-1640 medium supplemented with 6% washed human A positive (A+)(erythrocytes, 25 mM Hepes, […], and 10% heat inactivated A+ human plasma or ALBUMAX® (lipid-rich bovine serum albumin; Invitrogen, Carlsbad, Calif.). All cultures and assays were conducted at 37° C. under an atmosphere of 5% CO2 and 5% O2, with a balance of N2.
(§3) The prescreening assay uses TM91C235 diluted at a 0.4% parasitemia in a 1% hematocrit in folic acid free and p-aminobenzoic acid free media RPMI-1640 and ALBUMAX®. […] The compound is further diluted in folate free (FF) culture medium with ALBUMAX® for the first initial starting concentration. The rest of the stock drug solution was kept at −70° C. The isolate was preexposed, in duplicate, at three concentrations (25,000 ng/ml, 2,500 ng/ml, and […]) of the test compound for 48 hr in a 96-well microtiter plate (MTP) using the BIOMEK® 2000 automated laboratory workstation. Each MTP contains chloroquine as control to assess the relative activity of the compound and to monitor the response of TM91C235.
(§4) After the preincubation, [^3H]-hypoxanthine was added to each well of the MTP. (The assay relies on the incorporation of radiolabeled hypoxanthine by the parasites, which indicates reproduction, and inhibition of isotope incorporation was attributed to activity of known or candidate antimalarial drugs). After 72 hours of total incubation time, the MTP were frozen to lyse the erythrocytes and parasites. The parasite DNA was recovered by harvesting the lysate onto glass-fiber filter plates using a Packard FilterMate™ Cell Harvester. The radioactivity was counted on a Packard TopCount™ microplate scintillation counter.
(§5) The serial dilution assay was conducted using the same assay conditions and stock solution of the compound used for the preliminary screen, described above. Both the D-6 and the W-2 clones were used. The compounds were diluted two-fold over 11 different concentration ranges with a starting concentration that was based on the preliminary screen. For each drug, the concentration response profile was determined and 50% inhibitory concentrations (IC50) were determined by using a non-linear, logistic dose response analysis program. […] For each assay, the IC50 for each clone was determined against the known antimalarials chloroquine and mefloquine. These control values established the compound's relative parasite susceptibility profile compared to known antimalarials. […]

Experiment [2] has as its system P. falciparum D6 (CDC/Sierra Leone I, D-6). Kind of experiment: In vitro screening protocol I, [3H]-hypoxanthine incorporation, D6. To be noted: In vitro screening protocol I, P. falciparum D6; for IC50: Plasmodium falciparum, read-out: IC50 D6.
From the text: as §1, §2, §3, §4, §5

For a further experiment, the system named is P. falciparum TM91C235. Kind of experiment: In vitro screening protocol I, [3H]-hypoxanthine incorporation, TM91C235. The conditions noted are these: In vitro screening protocol I, P. falciparum TM91C235; for IC50: Plasmodium falciparum, read-out: IC50 TM91C235.
From the text: as §1, §2, §3, §4, §5

As for `CC[C@H]1OC(=O)[C@H](C)[C@@H](O[C@H]2C[C@@](C)(OC)[C@@H](O)[C@H](C)O2)[C@H](C)[C@@H](O[C@@H]2O[C@H](C)C[C@H](N(C)C)[C@H]2O)[C@](C)(O)C[C@@H](C)CN(CCNCc2cccc3ccccc23)[C@H](C)[C@@H](O)[C@]1(C)O` [Example 16, 9a-{2-[(Naphtalen-1-yl-methyl)amino]ethyl}-9-deoxo-9-dihydro-9a-aza-9a-homoerythromycin A], in experiment [1], the “IC50 W2” value was “A (X ≦ 100)”. In addition, the “IC50 D6” value in experiment [2] is “B (100 < X ≦ 200)”. The “IC50 TM91C235” value with P. falciparum TM91C235 is recorded as “A (X ≦ 100)”.

Regarding `CC[C@H]1OC(=O)[C@H](C)[C@@H](O[C@H]2C[C@@](C)(OC)[C@@H](O)[C@H](C)O2)[C@H](C)[C@@H](O[C@@H]2O[C@H](C)C[C@H](N(C)C)[C@H]2O)[C@](C)(O)C[C@@H](C)CN(CCCN(C)Cc2cccc3ccccc23)[C@H](C)[C@@H](O)[C@]1(C)O` [Example 17, 9a-{3-[Methyl-(naphtalen-1-yl-methyl)amino]propyl}-9-deoxo-9-dihydro-9a-aza-9a-homoerythromycin A], the IC50 in experiment [1] was below 0.1 µg/mL; in experiment [2], 0.1 to 0.2 µg/mL (≈ 0.106 to 0.211 µM); with P. falciparum TM91C235 it was below 0.1 µg/mL.

For `CC[C@H]1OC(=O)[C@H](C)[C@@H](O[C@H]2C[C@@](C)(OC)[C@@H](O)[C@H](C)O2)[C@H](C)[C@@H](O[C@@H]2O[C@H](C)C[C@H](N(C)C)[C@H]2O)[C@](C)(O)C[C@@H](C)CN(CCCNCc2ccccn2)[C@H](C)[C@@H](O)[C@]1(C)O` [Example 18, 9a-{3-[(Pyridin-2-yl-methyl)amino]propyl}-9-deoxo-9-dihydro-9a-aza-9a-homoerythromycin A], the values for the IC50 (in experiment [1]; in experiment [2]; in the experiment on P. falciparum TM91C235) were 0.2 to 1 µg/mL (≈ 0.226 to 1.13 µM), 1 to 2.5 µg/mL (≈ 1.13 to 2.83 µM) and 1 to 2.5 µg/mL (≈ 1.13 to 2.83 µM), respectively.

In the case of `CC[C@H]1OC(=O)[C@H](C)[C@@H](O[C@H]2C[C@@](C)(OC)[C@@H](O)[C@H](C)O2)[C@H](C)[C@@H](O[C@@H]2O[C@H](C)C[C@H](N(C)C)[C@H]2O)[C@](C)(O)C[C@@H](C)CN(CCCNCCCc2ccccc2)[C@H](C)[C@@H](O)[C@]1(C)O` [Example 19, 9a-{3-[(3-Phenylpropyl)amino]propyl}-9-deoxo-9-dihydro-9a-aza-9a-homoerythromycin A], the figures for the IC50 (in experiment [1]; in experiment [2]; in the experiment on P. falciparum TM91C235) were below 0.1 µg/mL, 0.1 to 0.2 µg/mL (≈ 0.11 to 0.22 µM) and below 0.1 µg/mL, respectively.

Turning to `CC[C@H]1OC(=O)[C@H](C)[C@@H](O[C@H]2C[C@@](C)(OC)[C@@H](O)[C@H](C)O2)[C@H](C)[C@@H](O[C@@H]2O[C@H](C)C[C@H](N(C)C)[C@H]2O)[C@](C)(O)C[C@@H](C)CN(CCCNCCc2ccccc2)[C@H](C)[C@@H](O)[C@]1(C)O` [Example 20, 9a-{3-[(2-Phenylethyl)amino]propyl}-9-deoxo-9-dihydro-9a-aza-9a-homoerythromycin A], the half-maximal inhibitory concentration (IC50) in experiment [1] was below 0.1 µg/mL; in experiment [2] it was 0.2 to 1 µg/mL (≈ 0.223 to 1.12 µM); in the experiment on P. falciparum TM91C235, below 0.1 µg/mL.

In the case of `CC[C@H]1OC(=O)[C@H](C)[C@@H](O[C@H]2C[C@@](C)(OC)[C@@H](O)[C@H](C)O2)[C@H](C)[C@@H](O[C@@H]2O[C@H](C)C[C@H](N(C)C)[C@H]2O)[C@](C)(O)C[C@@H](C)CN(CCCNc2ccnc3cc(Cl)ccc23)[C@H](C)[C@@H](O)[C@]1(C)O` [Example 21A, 9a-{3-[(7-Chloro-quinolin-4-yl)amino]propyl}-9-deoxo-9-dihydro-9a-aza-9a-homoerythromycin A], the IC50 (in experiment [1]; in experiment [2]; in the experiment on P. falciparum TM91C235) was below 0.1 µg/mL in each case.

Regarding `CC[C@H]1OC(=O)[C@H](C)[C@@H](O[C@H]2C[C@@](C)(OC)[C@@H](O)[C@H](C)O2)[C@H](C)[C@@H](O[C@@H]2O[C@H](C)C[C@H](NC)[C@H]2O)[C@](C)(O)C[C@@H](C)CN(CCCNc2ccnc3cc(Cl)ccc23)[C@H](C)[C@@H](O)[C@]1(C)O` [Example 21B, 9a-{3-[(7-Chloro-quinolin-4-yl)amino]propyl}-3′N-demethyl-9-deoxo-9-dihydro-9a-aza-9a-homoerythromycin A], the IC50 is 0.1 to 0.2 µg/mL (≈ 0.106 to 0.213 µM) in experiment [1], 0.1 to 0.2 µg/mL (≈ 0.106 to 0.213 µM) in experiment [2] and below 0.1 µg/mL with P. falciparum TM91C235.

As to `CC[C@H]1OC(=O)[C@H](C)[C@@H](O[C@H]2C[C@@](C)(OC)[C@@H](O)[C@H](C)O2)[C@H](C)[C@@H](O[C@@H]2O[C@H](C)C[C@H](N(C)C)[C@H]2O)[C@](C)(O)C[C@@H](C)CN(CCCNc2ccnc3ccccc23)[C@H](C)[C@@H](O)[C@]1(C)O` [Example 22, 9a-[3-(Quinolin-4-yl-amino)propyl]-9-deoxo-9-dihydro-9a-aza-9a-homoerythromycin A], the half-maximal inhibitory concentration (IC50) (in experiment [1]; in experiment [2]; with P. falciparum TM91C235) was below 0.1 µg/mL in each case.

Take `CC[C@H]1OC(=O)[C@H](C)[C@@H](O)[C@H](C)[C@@H](O[C@@H]2O[C@H](C)C[C@H](N(C)C)[C@H]2O)[C@](C)(O)C[C@@H](C)CN(CCCNc2ccnc3cc(Cl)ccc23)[C@H](C)[C@@H](O)[C@]1(C)O` [Example 23]: the concentration for half-maximal inhibition (IC50) (in experiment [1]; in experiment [2]; in the experiment on P. falciparum TM91C235) was below 0.1 µg/mL throughout.

Take `CC[C@H]1OC(=O)[C@H](C)[C@@H](O)[C@H](C)[C@@H](O[C@@H]2O[C@H](C)C[C@H](N(C)C)[C@H]2O)[C@](C)(O)C[C@@H](C)CN(CCCNc2ccnc3ccccc23)[C@H](C)[C@@H](O)[C@]1(C)O` [Example 24, 9a-[3-(Quinolin-4-yl-amino)propyl]-3-O-decladinosyl-9-deoxo-9-dihydro-9a-aza-9a-homoerythromycin A]: the results for the 50% inhibitory concentration (IC50) (in experiment [1]; in experiment [2]; in the experiment with P. falciparum TM91C235) were 0.1 to 0.2 µg/mL (≈ 0.131 to 0.263 µM), 0.1 to 0.2 µg/mL (≈ 0.131 to 0.263 µM) and 0.2 to 1 µg/mL (≈ 0.263 to 1.31 µM), respectively.

Turning to `CC[C@H]1OC(=O)[C@H](C)[C@@H](O[C@H]2C[C@@](C)(OC)[C@@H](O)[C@H](C)O2)[C@H](C)[C@@H](O[C@@H]2O[C@H](C)C[C@H](NC)[C@H]2O)[C@](C)(O)C[C@@H](C)CN(CCCNc2ccnc3ccccc23)[C@H](C)[C@@H](O)[C@]1(C)O` [Example 25, 9a-[3-(Quinolin-4-yl-amino)propyl]-3′-N-demethyl-9-deoxo-9-dihydro-9a-aza-9a-homoerythromycin A], the IC50 fell in the range of 1 to 2.5 µg/mL (≈ 1.1 to 2.76 µM) in experiment [1], 1 to 2.5 µg/mL (≈ 1.1 to 2.76 µM) in experiment [2] and 0.2 to 1 µg/mL (≈ 0.221 to 1.1 µM) in the experiment on P. falciparum TM91C235.

For `CC[C@H]1OC(=O)[C@H](C)[C@@H](O[C@H]2C[C@@](C)(OC)[C@@H](O)[C@H](C)O2)[C@H](C)[C@@H](O[C@@H]2O[C@H](C)C[C@H](N(C)C)[C@H]2O)[C@](C)(O)C[C@@H](C)CN(CCCNC(=O)CCc2ccccc2)[C@H](C)[C@@H](O)[C@]1(C)O` [Example 27, 9a-{3-[(3-Phenylpropanoyl)amino]propyl}-9a-aza-9-deoxo-9-dihydro-9a-homoerythromycin A Formiate Salt], the figures for the IC50 (in experiment [1]; in experiment [2]; with P. falciparum TM91C235) were 0.2 to 1 µg/mL, 0.2 to 1 µg/mL and below 0.1 µg/mL, respectively.

Turning to `CC[C@H]1OC(=O)[C@H](C)[C@@H](O[C@H]2C[C@@](C)(OC)[C@@H](O)[C@H](C)O2)[C@H](C)[C@@H](O[C@@H]2O[C@H](C)C[C@H](N(C)C)[C@H]2O)[C@](C)(O)C[C@@H](C)CN(CCCNC(=O)CCCc2ccccc2)[C@H](C)[C@@H](O)[C@]1(C)O` [Example 28, 9a-{3-[(4-Phenylbutanoyl)amino]propyl}-9a-aza-9-deoxo-9-dihydro-9a-homoerythromycin A Formiate Salt], the figures for the 50% inhibitory concentration (IC50) (in experiment [1]; in experiment [2]; in the experiment on P. falciparum TM91C235) were 0.2 to 1 µg/mL, 0.2 to 1 µg/mL and below 0.1 µg/mL, respectively.
